# Measured values taken from PMC5224920, “Assessing the mechanism and therapeutic potential of modulators of the human Mediator complex-associated protein kinases” (eLife, 2016).
# System: 12 single or co-culture in vitro tissue models of primary cells
# Assay: Culture/co-culture cell model panel, extracellular biomarkers (DiscoveRx); as to CCL2/MCP-1: reference of the scale not given here; as to CD141/Thrombomodulin: reference of the scale not given here; as to CD142/Tissue Factor: reference of the scale not given here; as to CXCL8/IL-8: reference of the scale not given here; as to CXCL9/MIG: reference of the scale not given here; as to M-CSF: reference of the scale not given here; as to SRB: reference of the scale not given here
# Assay type: cell-based, human
# [1] = /HDFNo unstimulated fibroblasts, 1.00E0 nM
# [2] = /HDFNo unstimulated fibroblasts, 1.00E1 nM
# [3] = /HDFNo unstimulated fibroblasts, 1.00E2 nM
# [4] = /HDFNo unstimulated fibroblasts, 1.00E3 nM
# [5] = /HDFNo unstimulated fibroblasts, 1.00E4 nM
smiles,measurement,setting,value
CN1c2ccc(-c3cncc(Cl)c3N3CCC4(CC3)CNC(=O)O4)cc2CS1(=O)=O [CMPD2],CCL2/MCP-1,"3C, 1.00E0 nM",0.00665
same,CD54/ICAM-1,"3C, 1.00E0 nM",-0.015
same,CD87/uPAR,"3C, 1.00E0 nM",-0.232
same,CD106/VCAM-1,"3C, 1.00E0 nM",0.040
same,CD141/Thrombomodulin,"3C, 1.00E0 nM",0.035
same,CD142/Tissue Factor,"3C, 1.00E0 nM",0.086
same,CXCL8/IL-8,"3C, 1.00E0 nM",0.001
same,CXCL9/MIG,"3C, 1.00E0 nM",-0.002
same,HLA-DR,"3C, 1.00E0 nM",-0.059
same,Proliferation,"3C, 1.00E0 nM",-0.0027
same,SRB,"3C, 1.00E0 nM",-0.057
same,CCL2/MCP-1,"3C, 1.00E1 nM",-0.088
same,CD54/ICAM-1,"3C, 1.00E1 nM",-0.034
same,CD87/uPAR,"3C, 1.00E1 nM",-0.339
same,CD106/VCAM-1,"3C, 1.00E1 nM",0.048
same,CD141/Thrombomodulin,"3C, 1.00E1 nM",0.056
same,CD142/Tissue Factor,"3C, 1.00E1 nM",0.130
same,CXCL8/IL-8,"3C, 1.00E1 nM",-0.104
same,CXCL9/MIG,"3C, 1.00E1 nM",-0.011
same,HLA-DR,"3C, 1.00E1 nM",-0.129
same,Proliferation,"3C, 1.00E1 nM",-0.036
same,SRB,"3C, 1.00E1 nM",-0.071
same,CCL2/MCP-1,"3C, 1.00E2 nM",-0.157
same,CD54/ICAM-1,"3C, 1.00E2 nM",-0.046
same,CD87/uPAR,"3C, 1.00E2 nM",-0.368
same,CD106/VCAM-1,"3C, 1.00E2 nM",0.046
same,CD141/Thrombomodulin,"3C, 1.00E2 nM",0.051
same,CD142/Tissue Factor,"3C, 1.00E2 nM",0.120
same,CXCL8/IL-8,"3C, 1.00E2 nM",-0.212
same,CXCL9/MIG,"3C, 1.00E2 nM",-0.016
same,HLA-DR,"3C, 1.00E2 nM",-0.138
same,Proliferation,"3C, 1.00E2 nM",-0.098
same,SRB,"3C, 1.00E2 nM",-0.085
same,CCL2/MCP-1,"3C, 1.00E3 nM",-0.150
same,CD54/ICAM-1,"3C, 1.00E3 nM",-0.055
same,CD87/uPAR,"3C, 1.00E3 nM",-0.368
same,CD106/VCAM-1,"3C, 1.00E3 nM",0.045
same,CD141/Thrombomodulin,"3C, 1.00E3 nM",0.055
same,CD142/Tissue Factor,"3C, 1.00E3 nM",0.116
same,CXCL8/IL-8,"3C, 1.00E3 nM",-0.275
same,CXCL9/MIG,"3C, 1.00E3 nM",-0.019
same,HLA-DR,"3C, 1.00E3 nM",-0.153
same,Proliferation,"3C, 1.00E3 nM",-0.074
same,SRB,"3C, 1.00E3 nM",-0.078
same,CCL2/MCP-1,"3C, 1.00E4 nM",-0.161
same,CD54/ICAM-1,"3C, 1.00E4 nM",-0.041
same,CD87/uPAR,"3C, 1.00E4 nM",-0.370
same,CD106/VCAM-1,"3C, 1.00E4 nM",0.044
same,CD141/Thrombomodulin,"3C, 1.00E4 nM",0.020
same,CD142/Tissue Factor,"3C, 1.00E4 nM",0.089
same,CXCL8/IL-8,"3C, 1.00E4 nM",-0.273
same,CXCL9/MIG,"3C, 1.00E4 nM",-0.019
same,HLA-DR,"3C, 1.00E4 nM",-0.147
same,Proliferation,"3C, 1.00E4 nM",-0.089
same,SRB,"3C, 1.00E4 nM",-0.086
same,CCL2/MCP-1,"/HDF3CT, 1.00E0 nM",-0.00225
same,CD54/ICAM-1,"/HDF3CT, 1.00E0 nM",-0.030
same,CD106/VCAM-1,"/HDF3CT, 1.00E0 nM",0.019
same,CXCL8/IL-8,"/HDF3CT, 1.00E0 nM",-0.027
same,CXCL9/MIG,"/HDF3CT, 1.00E0 nM",0.019
same,CXCL10/IP-10,"/HDF3CT, 1.00E0 nM",0.006
same,Collagen I,"/HDF3CT, 1.00E0 nM",-0.00072
same,M-CSF,"/HDF3CT, 1.00E0 nM",0.017
same,MMP-1,"/HDF3CT, 1.00E0 nM",0.072
same,PAI-I,"/HDF3CT, 1.00E0 nM",0.018
same,SRB,"/HDF3CT, 1.00E0 nM",0.014
same,TIMP-2,"/HDF3CT, 1.00E0 nM",0.034
same,CCL2/MCP-1,"/HDF3CT, 1.00E1 nM",-0.044
same,CD54/ICAM-1,"/HDF3CT, 1.00E1 nM",-0.067
same,CD106/VCAM-1,"/HDF3CT, 1.00E1 nM",0.019
same,CXCL8/IL-8,"/HDF3CT, 1.00E1 nM",-0.054
same,CXCL9/MIG,"/HDF3CT, 1.00E1 nM",0.015
same,CXCL10/IP-10,"/HDF3CT, 1.00E1 nM",0.022
same,Collagen I,"/HDF3CT, 1.00E1 nM",-0.038
same,M-CSF,"/HDF3CT, 1.00E1 nM",-0.031
same,MMP-1,"/HDF3CT, 1.00E1 nM",0.112
same,PAI-I,"/HDF3CT, 1.00E1 nM",-0.053
same,SRB,"/HDF3CT, 1.00E1 nM",-0.00569
same,TIMP-2,"/HDF3CT, 1.00E1 nM",0.057
same,CCL2/MCP-1,"/HDF3CT, 1.00E2 nM",-0.108
same,CD54/ICAM-1,"/HDF3CT, 1.00E2 nM",-0.073
same,CD106/VCAM-1,"/HDF3CT, 1.00E2 nM",0.009
same,CXCL8/IL-8,"/HDF3CT, 1.00E2 nM",-0.154
same,CXCL9/MIG,"/HDF3CT, 1.00E2 nM",-0.031
same,CXCL10/IP-10,"/HDF3CT, 1.00E2 nM",0.011
same,Collagen I,"/HDF3CT, 1.00E2 nM",-0.041
same,M-CSF,"/HDF3CT, 1.00E2 nM",-0.045
same,MMP-1,"/HDF3CT, 1.00E2 nM",0.027
same,PAI-I,"/HDF3CT, 1.00E2 nM",-0.092
same,SRB,"/HDF3CT, 1.00E2 nM",-0.00555
same,TIMP-2,"/HDF3CT, 1.00E2 nM",0.013
same,CCL2/MCP-1,"/HDF3CT, 1.00E3 nM",-0.094
same,CD54/ICAM-1,"/HDF3CT, 1.00E3 nM",-0.080
same,CD106/VCAM-1,"/HDF3CT, 1.00E3 nM",-0.001
same,CXCL8/IL-8,"/HDF3CT, 1.00E3 nM",-0.182
same,CXCL9/MIG,"/HDF3CT, 1.00E3 nM",-0.043
same,CXCL10/IP-10,"/HDF3CT, 1.00E3 nM",0.00749
same,Collagen I,"/HDF3CT, 1.00E3 nM",-0.064
same,M-CSF,"/HDF3CT, 1.00E3 nM",-0.064
same,MMP-1,"/HDF3CT, 1.00E3 nM",0.014
same,PAI-I,"/HDF3CT, 1.00E3 nM",-0.119
same,SRB,"/HDF3CT, 1.00E3 nM",-0.020
same,TIMP-2,"/HDF3CT, 1.00E3 nM",0.052
same,CCL2/MCP-1,"/HDF3CT, 1.00E4 nM",-0.114
same,CD54/ICAM-1,"/HDF3CT, 1.00E4 nM",-0.089
same,CD106/VCAM-1,"/HDF3CT, 1.00E4 nM",0.006
same,CXCL8/IL-8,"/HDF3CT, 1.00E4 nM",-0.206
same,CXCL9/MIG,"/HDF3CT, 1.00E4 nM",-0.053
same,CXCL10/IP-10,"/HDF3CT, 1.00E4 nM",0.009
same,Collagen I,"/HDF3CT, 1.00E4 nM",-0.042
same,M-CSF,"/HDF3CT, 1.00E4 nM",-0.068
same,MMP-1,"/HDF3CT, 1.00E4 nM",0.035
same,PAI-I,"/HDF3CT, 1.00E4 nM",-0.129
same,SRB,"/HDF3CT, 1.00E4 nM",0.00189
same,TIMP-2,"/HDF3CT, 1.00E4 nM",0.072
same,CXCL8/IL-8,[1],0.063
same,CXCL9/MIG,[1],0.141
same,CXCL10/IP-10,[1],0.082
same,CXCL11/I-TAC,[1],0.071
same,EGFR,[1],0.035
same,M-CSF,[1],0.081
same,MMP-1,[1],0.152
same,PAI-I,[1],0.049
same,Proliferation_72hr,[1],0.007
same,SRB,[1],0.029
same,TIMP-1,[1],0.066
same,TIMP-2,[1],0.143
same,CXCL8/IL-8,[2],-0.030
same,CXCL9/MIG,[2],0.069
same,CXCL10/IP-10,[2],0.062
same,CXCL11/I-TAC,[2],0.000639
same,EGFR,[2],0.025
same,M-CSF,[2],0.039
same,MMP-1,[2],0.095
same,PAI-I,[2],0.00174
same,Proliferation_72hr,[2],0.026
same,SRB,[2],-0.013
same,TIMP-1,[2],0.023
same,TIMP-2,[2],0.114
same,CXCL8/IL-8,[3],0.056
same,CXCL9/MIG,[3],0.068
same,CXCL10/IP-10,[3],0.052
same,CXCL11/I-TAC,[3],-0.029
same,EGFR,[3],0.009
same,M-CSF,[3],0.012
same,MMP-1,[3],0.109
same,PAI-I,[3],0.059
same,Proliferation_72hr,[3],0.043
same,SRB,[3],-0.046
same,TIMP-1,[3],0.021
same,TIMP-2,[3],0.081
same,CXCL8/IL-8,[4],-0.00424
same,CXCL9/MIG,[4],0.019
same,CXCL10/IP-10,[4],0.029
same,CXCL11/I-TAC,[4],0.022
same,EGFR,[4],0.016
same,M-CSF,[4],0.038
same,MMP-1,[4],0.108
same,PAI-I,[4],0.005
same,Proliferation_72hr,[4],0.043
same,SRB,[4],-0.011
same,TIMP-1,[4],-0.038
same,TIMP-2,[4],0.090
same,CXCL8/IL-8,[5],0.043
same,CXCL9/MIG,[5],0.044
same,CXCL10/IP-10,[5],0.051
same,CXCL11/I-TAC,[5],-0.015
same,EGFR,[5],0.031
same,M-CSF,[5],-0.007
same,MMP-1,[5],0.080
same,PAI-I,[5],0.026
same,Proliferation_72hr,[5],0.023
same,SRB,[5],-0.018
same,TIMP-1,[5],-0.039
same,TIMP-2,[5],0.105
same,CCL2/MCP-1,"/HDFNo, 1.00E0 nM",0.045
same,CD54/ICAM-1,"/HDFNo, 1.00E0 nM",0.099
same,CD106/VCAM-1,"/HDFNo, 1.00E0 nM",0.066
same,Collagen I,"/HDFNo, 1.00E0 nM",0.074
same,Collagen III,"/HDFNo, 1.00E0 nM",0.041
same,CCL2/MCP-1,"/HDFNo, 1.00E1 nM",0.107
same,CD54/ICAM-1,"/HDFNo, 1.00E1 nM",0.090
same,CD106/VCAM-1,"/HDFNo, 1.00E1 nM",0.050
same,Collagen I,"/HDFNo, 1.00E1 nM",0.084
same,Collagen III,"/HDFNo, 1.00E1 nM",0.042
same,CCL2/MCP-1,"/HDFNo, 1.00E2 nM",0.018
same,CD54/ICAM-1,"/HDFNo, 1.00E2 nM",0.060
same,CD106/VCAM-1,"/HDFNo, 1.00E2 nM",0.020
same,Collagen I,"/HDFNo, 1.00E2 nM",0.100
same,Collagen III,"/HDFNo, 1.00E2 nM",0.061
same,CCL2/MCP-1,"/HDFNo, 1.00E3 nM",-0.027
same,CD54/ICAM-1,"/HDFNo, 1.00E3 nM",0.063
same,CD106/VCAM-1,"/HDFNo, 1.00E3 nM",0.049
same,Collagen I,"/HDFNo, 1.00E3 nM",0.108
